These results are taken from US11597728B2, “Monoacylglycerol lipase modulators” (Janssen Pharmaceutica NV, priority 2018, dated 2023).

This assay deals with human MGL from HeLa cells (Homo sapiens (Human), UniProt Q99685). As to the kind of experiment: In vitro MGL activity assay: cleavage of [glycerol-1,3-3H]-oleoyl glycerol, activated carbon filtration. It counts as biochemical.
human MGL from HeLa cells, sequence (Q99685 whole entry): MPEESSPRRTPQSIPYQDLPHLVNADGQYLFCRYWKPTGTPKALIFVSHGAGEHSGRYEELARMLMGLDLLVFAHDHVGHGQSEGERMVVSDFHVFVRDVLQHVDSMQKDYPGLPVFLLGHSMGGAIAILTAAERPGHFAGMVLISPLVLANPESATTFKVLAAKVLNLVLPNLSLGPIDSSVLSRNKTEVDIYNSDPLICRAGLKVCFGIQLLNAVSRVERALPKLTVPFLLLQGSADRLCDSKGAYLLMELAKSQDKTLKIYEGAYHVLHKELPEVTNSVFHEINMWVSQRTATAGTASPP

The term IC50 denotes the concentration needed to halve the response being measured. Low readings indicate greater potency in that assay, high ones weaker potency in that assay. Take `Cn1nc2c(c1-c1ccc(F)c(F)c1)C[C@H]1CCC[C@@H]2N1C(=O)c1ccccc1-n1nccn1` [Example 126, (2-(2H-1,2,3-Triazol-2-yl)phenyl)((5R,9S)-3-(3,4-difluorophenyl)-2-methyl-4,5,6,7,8,9-hexahydro-2H-5,9-epiminocycloocta[c]pyrazol-10-yl)methanone]: the 50% inhibitory concentration (IC50) was 7.44 nM.
